# Experimental data taken from patent US9504702B2, “Methods of inhibition of protein fucosylation in vivo using fucose analogs” (Seattle Genetics, Inc., priority 2010, dated 2016).
# Where two headings read alike, the source gives them in different places.
# Columns and labels:
# [1] = test system: antibody core fucosylation (CHO DG44 cell line producing humanized IgG1 anti-CD70 antibody h1F6); test: Inhibition of antibody core fucosylation in CHO DG44 cell culture producing h1F6; assay type: cell-based; settings: day 5, CHO DG44 h1F6; for Inhibition at 50 μM: 50 μM fucose analog; for Inhibition at 1 mM / inhibition at 1000 µM: 1 mM fucose analog
# Experimental: Fucose analogs have been evaluated for their effect on antibody core fucosylation at concentrations of 50 μM and 1 mM generally as described in Published US Patent Application 2009-0317869. Briefly, the protocol was as follows: A CHO DG44 cell line producing a humanized IgG1 anti-CD70 monoclonal antibody, h1F6 (see International Patent Publication WO 06/113909) was cultured at 7.5×10^5 cells per mL in 2 mLs of CHO culture media at 37°, 5% CO2 and shaking at 100 RPM in a 6 well tissue culture plate. Media was supplemented with insulin like growth factor (IGF), penicillin, streptomycin and either 1 mM or 50 μM of the fucose analog. On day 5 post inoculation, the culture was centrifuged at 13000 RPM for 5 minutes to pellet the cells; antibodies were then purified from supernatant.
# Antibody purification was performed by applying the conditioned media to protein A resin pre-equilibrated with 1× phosphate buffered saline (PBS), pH 7.4. After washing resin with 20 resin bed volumes of 1×PBS, antibodies were eluted with 5 resin bed volumes of Immunopure IgG elution buffer (Pierce Biotechnology, Rockford, Ill.). A 10% volume of 1M Tris pH 8.0 was added to neutralize the eluted fraction.
# [2] = test system: LP-1, a human multiple myeloma cell line (IgG fucosylation); test: Fucosylation of LP-1-generated IgG, AOL dot blot; assay type: cell-based; settings: for % of control fucosylated IgG value / inhibition of IgG fucosylation in human cells (decrease in AOL signal, dot blot) / dot blot results (% fucose signal of control): 100 μM; for % of control fucosylated IgG value / activity at 100 µM: 5 days, AOL dot blot, multiple samples separated by semicolon; for % of control fucosylated IgG value / inhibition of IgG fucosylation in human cells (decrease in AOL signal, dot blot) / activity at 100 µM: LP-1 cells; for dot blot results (% fucose signal of control): LP-1-generated IgG; for activity at 100 µM: Homo sapiens, LP-1, 120 h, read-out: % of control fucosylated IgG value
# Experimental: To further evaluate the activities of different fucose analogs, 48 different fucose analogs and other four glycosylation inhibitors were tested for their ability to affect the fucosylation the LP-1-generated IgG. LP-1 cells (250,000 cells/mL, 3 mL per compound in 6-well plates) were incubated with 100 μM of each fucose analog for 5 days at 37° C. with a humidified atmosphere of 5% CO2 in IgG-depleted tissue culture media (90% RPMI with 10% IgG-depleted heat inactivated FBS). The IgG was isolated as described above using only 0.5 mL of MabSelect™ protein A resin slurry and one spin cup per sample with elution in 400 μL of IgG elution buffer into 25 μL of 9 M Tris buffer, pH 9. The eluates were concentrated to 10-20 μL per sample and 2 μL of each of the concentrated eluates were dotted onto a nitrocellulose membrane and stained with Ponceau S to estimate and adjust the sample loading for AOL staining. From this estimation of total protein in each sample, approximately 0.5 μg of each sample was dotted onto the membrane, air-dried, and stained with Ponceau S. An image of this stained membrane was captured using an Alpha Innotech FlourChem® Q system. The membrane was then blocked with 5% Bovine Serum Albumin (BSA) in Tris Buffered Saline (TBS) for 1 hr, washed with TBST (TBS with […]) 3 times and then incubated with 5 μg/ml biotinylated-AOL for 1 hr. The membrane was washed again with TBST 3 times, followed by Streptavidin-HRP incubation for 30 min and final washes with TBST 3 times.
# [3] = 120 h, read-out: Inhibition at 50 μM
# [4] = CHO-DG44, 120 h, read-out: Inhibition at 50 μM
Compound,Inhibition at 50 μM [1],% of control fucosylated IgG value [2],activity at 100 µM [2],further results
1-methyl alkynyl fucose triacetate [SGD-2059],68%,89 % of control,,Inhibition at 1 mM [1]: >80%
5-carboxamido fucose tetraacetate [SGD-1995],,79 % of control,,
5-epoxy fucose tetraacetate [SGD-2020],,5 % of control,,"inhibition of IgG fucosylation in human cells (decrease in AOL signal, dot blot) [2]: potentially strong inhibitors; dot blot results (% fucose signal of control) [2]: 5 % fucose signal of control"
6-alkyne-6-acetoxy fucose tetraacetate [SGD-2004],,29 % of control,,
"CC(=O)OC1C(C)OC(OC(C)=O)C(F)(F)C1OC(C)=O (stereo not drawn) [2-deoxy-2,2-difluorofucopyranose triacetate (alpha)]",0%,,,Inhibition at 1 mM [1]: 64%
"CC(=O)OC1C(C)OC(OC(C)=O)C(F)(F)C1OC(C)=O (stereo not drawn) [2-deoxy-2,2-difluorofucopyranose triacetate (beta)]",0%,,,Inhibition at 1 mM [1]: 75%
CC(=O)OC(C#N)[C@H]1OC(OC(C)=O)[C@@H](OC(C)=O)[C@@H]1OC(C)=O (some centres unmarked) [5-cyanoarabinofuranose tetraacetate],,,,"Inhibition at 50 μM [1, 3]: 5 to 10%"
CC(=O)OC1OC(C#N)[C@@H](OC(C)=O)[C@@H](OC(C)=O)[C@@H]1OC(C)=O (some centres unmarked) [5-cyanoarabinopyranose tetraacetate],,,,"Inhibition at 50 μM [1, 3]: 20%"
"CC(=O)OC1OC(CCl)[C@@H](OC(C)=O)[C@@H](OC(C)=O)[C@@H]1OC(C)=O (stereo partly drawn) [6-chloro-fucose tetraacetate, (3S,4R,5S)-6-(chloromethyl)tetrahydro-2H-pyran-2,3,4,5-tetrayl tetraacetate]",,,,"Inhibition at 50 μM [1, 4]: 20%; inhibition at 1000 µM ([1]; CHO-DG44, 120 h): 20 to 30%"
"CC(=O)OC1OC(CI)[C@@H](OC(C)=O)[C@@H](OC(C)=O)[C@@H]1OC(C)=O (stereo partly drawn) [6-iodo-fucose tetraacetate, (3S,4R,5S)-6-(iodomethyl)tetrahydro-2H-pyran-2,3,4,5-tetrayl tetraacetate]",,,,"Inhibition at 50 μM [1, 4]: 3%; inhibition at 1000 µM ([1]; CHO-DG44, 120 h): 30%"
"C#CC1OC(OC(=O)C(C)(C)C)C(OC(=O)C(C)(C)C)C(OC(=O)C(C)(C)C)C1O (centres unmarked) [Alkynyl fucose 1,2,3-(trimethylacetate), 5-ethynylarabinose 1,2,3-(trimethylacetate)]",~0%,,,
"C#CC1OC(OC(=O)C(C)(C)C)C(O)C(OC(=O)C(C)(C)C)C1O (centres unmarked) [Alkynyl fucose di(trimethylacetate), 5-ethynylarabinose 1,3-(trimethylacetate)]",>80%,,,
"O=C1O[C@H]([C@@H](O)CO)[C@@H](O)[C@@H]1O [SGD-1931, L-galactono-1,4-lactone]",,,81%,
"CO[C@@H]1O[C@@H](C)[C@@H](O)[C@@H](O)[C@@H]1O [SGD-1932, Methyl a-L-fucopyranoside]",,87 % of control,,
"C#CCNC[C@H](O)[C@@H](O)[C@@H](O)[C@H](O)C=O [SGD-1950, 6-propargylamino fucose]",,,40%,
"CC(=O)OC(CC(=O)O)[C@@H](OC(C)=O)[C@@H](OC(C)=O)[C@@H](C=O)OC(C)=O (some centres unmarked) [SGD-1959, 5-carboxymethyl arabinose tetraacetate]",,,94%,"Inhibition at 50 μM [1, 3]: 30%; inhibition at 1000 µM ([1]; 120 h): > 80%"
"O[C@H]1[C@H](O)[C@@H](O)CN2CC[C@H](O)[C@H]12 [SGD-1960, castanospermine, reference compound]",,,300%,
"CC(=O)O[C@@H]([C@@H](C=O)OC(C)=O)[C@H](OC(C)=O)C(C)(C)OC(C)=O [SGD-1964, 5-methylketo fucose tetraacetate]",,,5%,"inhibition of IgG fucosylation in human cells (decrease in AOL signal, dot blot) [2]: potentially strong inhibitors; dot blot results (% fucose signal of control) [2]: 5 % fucose signal of control"

Compound,Inhibition at 50 μM [1],% of control fucosylated IgG value [2],activity at 100 µM [2],further results
"CC(=O)OC1O[C@@H](C(C)C)[C@@H](OC(C)=O)[C@@H](OC(C)=O)[C@@H]1OC(C)=O (stereo partly drawn) [SGD-1977, (3S,4R,5R,6S)-6-isopropyltetrahydro-2H-pyran-2,3,4,5-tetrayl tetraacetate]",,,79%,
"C#C[C@@H]1OC(OC(=O)CC)[C@@H](OC(=O)CC)[C@H](OC(=O)CC)[C@@H]1OC(=O)CC (some centres unmarked) [SGD-2010, 5-ethynylarabinose tetrapropropanoate]",>80%,1.5 % of control,,"Inhibition at 1 mM [1]: >80%; inhibition of IgG fucosylation in human cells (decrease in AOL signal, dot blot) [2]: potentially strong inhibitors"
"C#CC(OC(=O)CCCCC)[C@@H](OC(=O)CCCCC)[C@@H](OC(=O)CCCCC)[C@@H](C=O)OC(=O)CCCCC (some centres unmarked) [SGD-2012, 5-ethynylarabinose tetrahexanoate]",,,67%,"Inhibition at 50 μM [1, 4]: > 80%; inhibition at 1000 µM ([1]; CHO-DG44, 120 h): > 80%"
"O=C[C@H](O)[C@@H](O)[C@@H](O)[C@H](O)CS [SGD-2025, 6-thio galactose pentaacetate]",,,44%,
"COC(=O)[C@@H]1OC(OC(C)=O)[C@@H](OC(C)=O)[C@H](OC(C)=O)[C@@H]1OC(C)=O (some centres unmarked) [SGD-2061, 6-carboxymethyl ester fucose tetraacetate]",,71 % of control,,
"CCC(=O)[C@H](OC(C)=O)[C@@H](OC(C)=O)[C@@H](OC(C)=O)[C@@H](C=O)OC(C)=O [SGD-2067, 6-keto-6-ethyl fucose tetraacetate]",,,3%,"inhibition of IgG fucosylation in human cells (decrease in AOL signal, dot blot) [2]: potentially strong inhibitors; dot blot results (% fucose signal of control) [2]: 3 % fucose signal of control"
"CC(=O)OC(CCC#N)[C@@H](OC(C)=O)[C@@H](OC(C)=O)[C@@H](C=O)OC(C)=O (some centres unmarked) [SGD-2070, 5-(2-cyanoethyl)arabinose tetraacetate]",,,51%,
"CC(=O)OC[C@@H](OC(C)=O)[C@H](OC(C)=O)[C@H](OC(C)=O)[C@H](C=O)OC(C)=O [SGD-2074, D-galactose pentaacetate]",,,118%,
"CC(=O)OC1C=COC(C)C1OC(C)=O (centres unmarked) [SGD-2080, 1,2-dideoxy-1,2-dehydro fucose diacetate]",,159 % of control,,
"CC(=O)OC1COC(C)C(OC(C)=O)C1OC(C)=O (centres unmarked) [SGD-2081, 1-deoxy fucose triacetate]",,70 % of control,,
"CC(=O)O[C@@H]1[C@H](OC(C)=O)[C@H](C)OC(F)[C@H]1F (some centres unmarked) [SGD-2082, 1,2-difuloro fucose diacetate]",>80%,87 % of control,,Inhibition at 1 mM [1]: >80%
"CC(=O)OC1CC(OC(C)=O)C(OC(C)=O)C(C)O1 (centres unmarked) [SGD-2108, 6-methyl-tetrahydro-2H-pyran-2,4,5-triyl triacetate]",,,104%,"Inhibition at 50 μM [1, 4]: 0%"
"C[C@H](O)[C@@H](O)[C@@H](O)[C@@H](O)C=O [SGD-2113, 6-deoxy-L-talose]",,,93%,
alkynyl fucose tetra PEG ester [SGD-2057],>80%,64 % of control,,Inhibition at 1 mM [1]: >80%
alkynyl fucose tetraisobutanoate [SGD-2043],>80%,34 % of control,,Inhibition at 1 mM [1]: >80%
alkynyl fucose tetraisonicotinate [SGD-2058],>80%,34 % of control,,Inhibition at 1 mM [1]: >80%
alkynyl fucose tetranicotinate [SGD-2047],>80%,50 % of control,,Inhibition at 1 mM [1]: >80%
benzyloxy fucose tetraacetate [SGD-2048],0%,114 % of control,,Inhibition at 1 mM [1]: 75%
